Laboratory results taken from patent publication US20170349879A1, “METHOD FOR CULTURING NORMAL CELLS AND ODONTOMA CELLS CONTAINED IN ORAL TISSUE” (CHIBA UNIVERSITY, priority 2014, published 2017).

How the values were obtained:
Format in all cases: cell-based, human
amylase = assay: Expression analysis of amylase by quantitative RT-PCR in salivary gland cells; settings: salivary gland cells repeatedly subcultured in Rock inhibitor-containing medium; relative to GAPDH; FIG. 2
Procedure: Salivary gland cells were cultured in the presence or absence of a Rock inhibitor and provided for quantitative RT-PCR assay with a LightCycler 480 (Roche) to analyze amylase expression in these salivary gland cells. The primers used for amylase are as shown below, and the universal probe used was #18. The primers used for glyceraldehyde-3-phosphate dehydrogenase (GAPDH) serving as an endogenous control are as shown below, and the universal probe used was #60. The PCR reaction was conducted in accordance with standard protocols by using a mixture (final reaction volume: 20 μl) containing 10 μl of Probe master (Roche), 0.2 μl of each probe master and the primers. The reaction conditions were set to initial denaturation at 95° C. for 5 minutes and 50 amplification cycles of denaturation at 95° C. for 10 seconds, annealing at 60° C. for 30 seconds and elongation reaction at 60° C. for 60 seconds. The mRNA level of the desired gene was expressed as a relative value to the expression level of GAPDH used as a control.

salivary gland cells = assay: Analysis of cytomorphological changes by immunocytological fluorescent staining of the cytoskeleton (F-actin); settings: salivary gland cells in Rock inhibitor-containing medium vs inhibitor-free medium; FIG. 4
Procedure: In this section, cytomorphological changes caused by the presence or absence of a Rock inhibitor were analyzed by immunocytological fluorescent staining of the cytoskeleton. Analytes were treated by the same experimental procedures as shown in (2.2) above. As an antibody, Acti-stain 670 fluorescent Phallodin (F-actin) (Cytoskeleton) was reacted at room temperature for 1 hour.

[1] = tested on: proliferating cell nuclear antigen (PCNA); assay: Western blotting of PCNA (proliferation) in salivary gland cells; settings: salivary gland cells in Rock inhibitor-containing medium; relative to α-tubulin; FIG. 6A
Procedure: Primary cultured salivary gland cells were cultured in a medium containing a Rock inhibitor and analyzed for their proliferation by Western blotting of proliferating cell nuclear antigen (PCNA: Santa Cruz) and for their apoptosis by Western blotting of caspase-3 (CST). For analysis of their immortalization, the expression of telomerase reverse transcriptase (TERT) was analyzed by quantitative RT-PCR assay.
The protein levels of PCNA and caspase-3 were measured by Western blotting. In addition, α-tubulin was used as an endogenous control.
(i) A protein extract was electrophoresed on a 4% to 12% polyacrylamide gel (Invitrogen).
(ii) The proteins were transferred onto a nitrocellulose membrane (Invitrogen).
(iii) The membrane was washed with Tris-buffered saline containing 0.1% Tween-20 (WaKo) (TBST), and then blocked with Blocking One (Nacalai Tesque, Inc., Japan) for 30 minutes. […]
(vi) The membrane was reacted at room temperature for 1 hour with horseradish peroxidase (HRP)-conjugated secondary antibody (Promega) and then treated with Super Signal West Pico Chemiluminescent substrate (Thermo) to develop signals for visualization purposes. The intensity of signals was quantified with a CS analyzer (ATTO) and expressed as a relative value in comparison with the protein level of α-tubulin measured as a control.

[2] = tested on: oral mucosal epithelial cells; assay: Cell culture of oral mucosal epithelial cells using a Rho kinase inhibitor (cell morphology); settings: inhibitor-containing medium (10 μM); passage 5 with inhibitor vs passage 0 without; FIG. 12
Procedure: (§1) Odontoma cells, oral mucosal epithelial cells, fibroblasts, and cancer-associated fibroblasts (CAFs) (i) Patient-derived cells for use as a source material were taken in a required amount as described above. (ii) The cells were washed three times with phosphate-buffered physiological saline (PBS) (supplemented with 10 units/ml of penicillin and 100 μg/ml of streptomycin: Sigma-Aldrich). (iii) The cells were cut into small pieces with sterilized iris scissors and a surgical knife (No. 11). (iv) After addition of trypsin (TrypLE Select Enzyme, Gibco, Code No. A12177-01), the cells were shaken at 37° C. for 30 minutes. (v) The cells were mixed with Dulbecco's modified Eagle medium (DMEM: Sigma-Aldrich) (supplemented with 10% fetal bovine serum: Nichirei Bioscience Inc., Japan, 10 units/ml of penicillin and 100 μg/ml of streptomycin), and centrifugation (at 1000 rpm for 5 minutes) was repeated three times. (vi) The cells were mixed with DMEM (supplemented with 10% fetal bovine serum, 10 units/ml of penicillin, 100 μg/ml of streptomycin, 10 μM of the Rock kinase inhibitor and 0.3 μM of L-ascorbic acid 2-phosphate: Sigma-Aldrich) (DMEM+) and then seeded into collagen type I-coated cell culture dishes (IWAKI). (vii) The cells were washed with PBS once every three days to replace the above medium. (viii) The cultured cells were subcultured at 80% confluency. […]

[3] = tested on: cancer-associated fibroblasts (CAFs); assay: Cell culture of cancer-associated fibroblasts using a Rho kinase inhibitor (cell morphology); settings: inhibitor-containing medium (10 μM); passage 7 with inhibitor vs passage 1 without; FIG. 14
Procedure: as §1

[4] = tested on: vascular endothelial cells; assay: Cell culture of vascular endothelial cells using a Rho kinase inhibitor (cell morphology); settings: inhibitor-containing medium (10 μM, EGM-2MV); passage 8 with inhibitor vs passage 0 without; FIG. 15
Procedure: Vascular Endothelial Cells (i) Patient-derived cells for use as a source material were taken in a required amount as described above. (ii) The cells were washed three times with phosphate-buffered physiological saline (PBS) (supplemented with 10 units/ml of penicillin and 100 μg/ml of streptomycin: Sigma-Aldrich). (iii) The cells were cut into small pieces with sterilized iris scissors and a surgical knife (No. 11). (iv) The cells were added to collagenase (032-10534: Wako) and shaken at 37° C. for 60 minutes. (v) The cells were diluted with an equal volume of fetal bovine serum (Nichirei Bioscience Inc., Japan) and centrifuged (at 1000 rpm for 10 minutes), and then centrifuged (at 1000 rpm for 5 minutes) three times with PBS, followed by addition of MACS buffer and centrifugation (at 1000 rpm for 5 minutes). (vi) Magnetic beads (Dynabeads CD31 Endotherial cell, 11155D: Invitrogen) were used to separate the cells. (vii) The cells were mixed with EGM-2MV (Lonza) (supplemented with 20% fetal bovine serum, 10 units/ml of penicillin, 100 μg/ml of streptomycin, and 10 μM of the Rock kinase inhibitor) and then seeded into fibronectin-coated cell culture dishes (IWAKI). (viii) The cells were washed with PBS once every three days to replace the above medium. (ix) The cultured cells were subcultured at 80% confluency. […]

**Q.** How did the “mRNA expression of amylase” value (amylase) turn out when `CC(N)[C@H]1CC[C@H](C(=O)Nc2ccncc2)CC1` (stereo partly drawn) [Rock inhibitor, (R)-(+)-trans-N-(4-pyridyl)-4-(1-aminoethyl)-cyclohexanecarboxamide] was run?
**A.** significantly high

**Q.** And the “cytoskeleton (F-actin) morphology” value (salivary gland cells)?
**A.** honeycomb-like skeleton

**Q.** And the PCNA expression [1]?
**A.** no difference was observed

**Q.** What about the “cell morphology of oral mucosal epithelial cells on repeated subculture” value [2] of the same compound?
**A.** maintain their cell morphology even when repeatedly subcultured

**Q.** What about the “cell morphology of cancer-associated fibroblasts on repeated subculture” value [3] of the same compound?
**A.** maintain their cell morphology even when repeatedly subcultured

**Q.** What about the “cell morphology of vascular endothelial cells on repeated subculture” value [4] of the same compound?
**A.** maintain their cell morphology even when repeatedly subcultured
